Key:
[1] = molecular target: CYP2C9 (Homo sapiens, UniProt P11712); conditions: cited from earlier work
[2] = system: MCF-7 cells; assay: MCF-7 cell number (MTS), caspase-9 cleavage, PI uptake and colony formation; type: cell-based, human; conditions: for colony formation: 2 weeks
Protocol: FIGS. 14A-E—Apigenin suppresses MUC1 expression in MCF-7 cells. (FIG. 14A) MCF-7 cells were treated with DMSO vehicle, 75 μM apigenin or 75 μM baicalein for 3 d. Total RNA was assayed for MUC1 mRNA levels by qRTPCR. The results (mean+SD of 3 determinations) are expressed as relative MUC1 mRNA levels as compared to that obtained in cells treated with DMSO. (FIGS. 14B-C) MCF-7 cells were treated with the indicated concentrations of apigenin and baicalein for 3 days. Nuclear (FIG. 14B) and whole cell lysates (FIG. 14C) were immunoblotted with the indicated antibodies. D. Lysates from MCF-7 cells were infected to stably express a control lentivirus and one with a MUC1 shRNA were immunoblotted with the indicated antibodies. (FIG. 14E) The indicated MCF-7 cells were treated with […] apigenin for 3 d. Viable cell number was determined by the MTS assay. The results (mean+SD of 3 determinations) are expressed as percentage of control growth in the presence of DMSO.
FIGS. 15A-C—Apigenin inhibits MCF-7 clonogenic survival. (FIG. 15A) MCF-7 cells were treated with DMSO, 75 μM apigenin or 75 μM baicalein for 3 d. Lysates were immunoblotted with the indicated antibodies. (FIG. 15B) MCF-7 cells were treated with DMSO, 75 μM apigenin or 75 μM baicalein for 3 d, stained with propidium iodide and analyzed by flow cytometry. […] (FIG. 15C) MCF-7 cells were plated at a density of 1000 cells/6 cm dish. At 24 h after seeding, DMSO or apigenin at concentrations of 25, 50 and 75 μM was added to the medium. After 2 weeks, colonies were stained with crystal violet. The results (mean+SD of 3 determinations) are expressed as percentage of control colony formation in the presence of DMSO.

[3] = system: ZR-75-1/vector cells; assay: Viable cell number by trypan blue exclusion, ZR-75-1/vector; type: cell-based, human; conditions: 5 μM
Protocol: (§1) FIGS. 4A-E. Selectivity of MUC1/CQC for MUC1 expressing breast cancer cells. (FIG. 4A) ZR-75-1 cells were stably infected with an empty lentivirus (vector) or one expressing a MUC1 siRNA. Lysates for the infected cells were immunoblotted with the indicated antibodies. (FIG. 4B) ZR-75-1/vector cells were left untreated (diamonds), and ZR-75-1/vector (squares) and ZR-75-1/MUC1 siRNA (triangles) cells were treated with 5 μM MUC1/CQC peptide for the indicated times. Viable cell number was determined by trypan blue exclusion. (FIG. 4C) 293 cells were left untreated (diamonds), and treated with 5 μM MUC1/CQC (squares) or MUC1/AQA (triangles) for the indicated times. Viable cell number was determined by trypan blue exclusion. (FIG. 4D) MCF-10A cells were left untreated (left panel), and treated with 5 μM MUC1/CQC (middle panel) or MUC1/AQA (right panel). At 3 d, cells were analyzed for cell cycle distribution. […] Viable cell number was determined by trypan blue exclusion.
(§2) Human breast cancer ZR-75-1, ZR-75-1/vector, ZR-75-1/MUC1siRNA (Ren et al., 2004) cell lines were grown in RPMI1640 medium supplemented with 10% heat-inactivated fetal bovine serum (HI-FBS), 100 U/ml penicillin, and 100 μg/ml streptomycin (Invitrogen) in a humidified incubator at 37° C. and 5% CO2. […] Viability was determined by trypan blue exclusion.

[4] = system: MCF-7 cells; assay: Cell cycle distribution and necrosis by flow cytometry, MCF-7; type: cell-based, human; conditions: MCF-7, 5 μM, 3 and 4 d
Protocol: FIGS. 3A-D. MUC1/CQC peptide induces S phase arrest and necrosis. ZR-75-1 (FIGS. 2A-B) and MCF-7 (FIGS. 2C-D) cells were treated with 5 μM MUC1/CQC or MUC1/AQA for 3 and 4 d. Cells were fixed and analyzed for cell cycle distribution by flow cytometry (FIGS. 2A and 2C). The percentage of cells in G1, S and G2/M phases is included in the panels. Cells were also stained with propidium iodide and analyzed by flow cytometry for necrosis (FIGS. 2B and 2D). The percentage of necrotic cells is included in the panels.
Cells were harvested, washed with PBS, fixed with 80% ethanol, and incubated in PBS containing 40 μg/ml RNAse and 40 μg/ml propidium iodide for 30 min at 37° C. Cell cycle distribution was determined by flow cytometry. Sub-G1 DNA content was assessed by staining ethanol-fixed and citrate buffer-permeabilized cells with propidium iodide and monitoring by flow cytometry as described (Yin et al., 2007). For assessment of necrosis, cells were incubated with 1 μg/ml propidium iodide/PBS for 5 min at room temperature and then monitored by flow cytometry as described (Yin et al., 2007).

[5] = Body weight of nude mice given peptide; type: in vivo, nude (nu/nu) mice
Protocol: To determine if administration of the MUC1/CQC peptide is associated with effects on body weight, five female nude (nu/nu) mice were injected intraperitoneally (IP) once each day at a dose of 50 mg/kg. […] To assess anti-tumor activity, ZR-75-1 cells (1×10^7) were implanted subcutaneously into the flanks of nude mice. After 12 d, mice bearing tumors of approximately 150 mm^3 were treated with the MUC1/CQC peptide at doses of 10 and 50 mg/kg/d. As controls, mice were treated with vehicle alone or with the MUC1/AQA peptide. Administration of the MUC1/CQC peptide at 10 mg/kg/d×21 d slowed growth as compared to that obtained with the MUC1/AQA peptide given at 50 mg/kg/d (FIG. 5A). […] Consequently, treatment was stopped and the mice were monitored for regrowth. […] To assess in part the basis for the activity, tumors harvested from control and treated mice were examined by histopathology. […] Sections of the tumors were also stained with an antibody against MUC1.

[6] = system: MUC1-negative 293 cells; assay: Viable cell number by trypan blue exclusion, 293 cells; type: cell-based, human; conditions: 5 μM
Protocol: as §1, §2

[7] = system: MCF-10A cells; assay: Cell cycle distribution and growth of MCF-10A cells (peptide); type: cell-based, human; conditions: 5 μM
Protocol: as §1
as §2, with “exclusion. […]” for “exclusion.”

Sequence of CYP2C9 (P11712 whole entry, species assumed): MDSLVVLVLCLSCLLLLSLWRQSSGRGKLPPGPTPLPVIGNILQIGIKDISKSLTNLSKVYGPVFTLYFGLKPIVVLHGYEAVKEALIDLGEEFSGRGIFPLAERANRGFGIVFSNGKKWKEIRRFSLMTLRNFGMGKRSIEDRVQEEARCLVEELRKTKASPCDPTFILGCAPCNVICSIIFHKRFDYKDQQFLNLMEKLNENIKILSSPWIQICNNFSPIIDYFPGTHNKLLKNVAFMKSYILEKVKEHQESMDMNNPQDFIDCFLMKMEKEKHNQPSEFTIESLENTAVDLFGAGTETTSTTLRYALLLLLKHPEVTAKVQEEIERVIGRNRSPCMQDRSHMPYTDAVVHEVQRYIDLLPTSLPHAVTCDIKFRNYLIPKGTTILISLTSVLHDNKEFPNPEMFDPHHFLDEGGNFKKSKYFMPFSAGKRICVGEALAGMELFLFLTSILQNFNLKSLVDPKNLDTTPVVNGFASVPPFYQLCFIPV

Structure (SMILES)	inhibition of CYP2C9 [1]	colony formation ([2]; MCF-7, 25 μM)	caspase-9 cleavage ([2]; MCF-7, 75 μM, 3 d)	cell membrane integrity (PI) ([2]; MCF-7, 75 μM, 3 d)	effect of silencing MUC1 (shRNA) on apigenin-induced decreases in cell number ([2]; MCF-7, 75 µM, 3 d, MTS)	colony formation ([2]; MCF-7, higher concentrations (50 and 75 μM))	growth / viable cell number [3]	cell cycle distribution [4]	necrosis (propidium iodide) [4]	body weight ([5]; 50 mg/kg IP once each day over 11 d)	body weight ([5]; next 28 d after stopping administration, data not shown)	growth / viable cell number [6]	growth / viable cell number [7]	cell cycle distribution ([7]; 3 d)
O=c1cc(-c2ccc(O)cc2)oc2cc(O)cc(O)c12 [Apigenin, 4′,5,7-trihydroxyflavone]	potent inhibitor	substantial decrease in colonies	cleavage of caspase-9	loss of cell membrane integrity	partially decreased sensitivity	complete loss of survival	–	–	–	–	–	–	–	–
CC[C@H](C)[C@H](NC(=O)[C@H](CC(=O)O)NC(=O)[C@H](CC(C)C)NC(=O)[C@H](CCC(N)=O)NC(=O)CNC(=O)[C@H](Cc1ccc(O)cc1)NC(=O)[C@H](CC(N)=O)NC(=O)[C@H](CCCCN)NC(=O)[C@H](CCCNC(=N)N)NC(=O)[C@H](CCCNC(=N)N)NC(=O)[C@H](CS)NC(=O)[C@H](CCC(N)=O)NC(=O)[C@H](CS)NC(=O)[C@@H](CCCNC(=N)N)NC(=O)[C@@H](CCCNC(=N)N)NC(=O)[C@@H](CCCNC(=N)N)NC(=O)[C@@H](CCCNC(=N)N)NC(=O)[C@@H](CCCNC(=N)N)NC(=O)[C@@H](CCCNC(=N)N)NC(=O)[C@@H](CCCNC(=N)N)NC(=O)[C@@H](CCCNC(=N)N)NC(=O)[C@H](N)CCCNC(=N)N)C(=O)N[C@@H](Cc1ccccc1)C(=O)N1CCC[C@H]1C(=O)O [MUC1/CQC]	–	–	–	–	–	–	growth arrest and death	arrest of growth in S phase	induction of necrosis	no apparent effect	no subsequent effect	no apparent effect	no effect	no effect
